# In PMC10787067, “EBF2 Links KMT2D‐Mediated H3K4me1 to Suppress Pancreatic Cancer Progression via Upregulating KLLN” (Advanced Science, 2023):
# What was measured:
# SW1990 cells [1] = assay: KLLN rescue experiments (CCK-8, colony-formation, Transwell), SW1990; assay type: cell-based, Human; details: p < 0.01, Figure 5Q-S
# Method: (§1) Cell proliferation was determined by Cell Counting Kit‐8 (CCK‐8, Yeasen) and EdU Cell Proliferation Assay kit (Ribobio, Guangzhou, China). Colony formation was observed by staining with 0.1% crystal violet (Sangon Biotechnologies Inc., Shanghai, China). Cell migration and invasion were assessed using […] pore Transwell chambers with (for invasion assay) or without Matrigel (for migration assay). For migration assay, 5 × 10^4 SW1990 or 3 × 10^4 PANC‐1 cells were seeded into the upper chamber of the Transwell apparatus (Corning, USA) in serum‐free medium, and the medium supplemented with 10% FBS was added to the bottom chamber. For invasion assay, 10 × 10^4 SW1990 or 6 × 10^4 PANC‐1 cells were seeded into the upper Corning BioCoat Matrigel invasion chamber. After 24 h, the cells on the upper surface that had not passed through the polycarbonate filter were removed using a moistened cotton swab; the cells having migrated to the lower membrane surface were fixed in 100% methanol for 10 min, stained with 0.4% crystal violet for 15 min, and counted under a microscope (Nikon, Japan) at ×100 magnification. The cells were manually counted using Image J software. Three independent experiments were performed.
# KLLN [2] = assay: Western blot of KLLN in SW1990 cells; assay type: cell-based, Human
# Method: (§2) SW1990 and PANC‐1 cells were isolated using lysate buffer containing protease inhibitors. Samples containing equal amounts of protein were separated by SDS‐PAGE. After electrophoresis, the proteins were transferred to a PVDF membrane (Millipore, Billerica, MA, USA) and blocked with 5% skim milk for 2 h at room temperature. An overnight incubation of membranes was made at 4 °C with primary antibodies against KMT2D (1:1000; Affinity, China), EBF2 (1:1000; Affinity), and KLLN (1:1000; Abcam, USA). After washing with 1× TBST for three times, a 2 h incubation of membranes was implemented with horseradish peroxidase (HRP)‐gemeled Affinipure Goat Anti‐Rabbit IgG (H + L) (1:10000; ProteinTech, China) or Peroxidase‐gemeled Affinipure Goat Anti‐Mouse IgG (H+L) (1:10000; ProteinTech) at room temperature. Proteins were visualized by chemiluminescence using an ECL kit (Thermo Fisher).
# H3K4me1 = assay: Western blot of H3K4me1 in PANC-1 cells; assay type: cell-based, Human; details: 0, 1, 10 or 100 μM GSK-LSD1, Figure S4D
# KDM1A/LSD1 = details: cited from earlier work
# Source text: Next, we sought to elucidate the roles of KMT2D‐ and EBF2‐regulated H3K4me1 through profiling the gene transcription in PDAC cells with H3K4me1 activation by GSK‐LSD1 or EBF2 overexpression (EBF2‐OE). […] These differentially expressed genes (DEGs) were overlapped genes between EBF2‐OE and GSK‐LSD1‐treated SW1990 cells. A ...
# SW1990 cells [3] = assay: Transwell migration and invasion, SW1990; assay type: cell-based, Human; details: 24 h, vs Vehicle, p < 0.01, Figure 5H
# Method: as §1
# SW1990‐luc xenografts = assay: SW1990-luc xenografts in BALB/c nude mice; assay type: in vivo, Human (xenograft in BALB/c nude mice); details: n = 5, p < 0.01, two-way ANOVA, dose not given, Figure 5I-K
# Method: BALB/c nude mice (4 weeks old) were purchased from the Animal Core Facility of Nanjing Medical University. Every 1 × 10^6 SW1990‐luc cells (SW1990 cells labeled with luciferase) were suspended in 100 µL of PBS and Matrigel (Corning) mixture, then subcutaneously injected into the right forelimb of nude mice. The length and width of tumor were measured every 2 or 3 days. Tumor volume was calculated using the formula: Volume = 0.5 × length × width^2. Luciferase signals in nude mice were measured at the first and fourth week after injection. The mice were sacrificed at 30 days for in vivo proliferation assay. Mice were anesthetized with isoflurane gas and sacrificed by cervical dislocation. Tumor tissues of these mice were collected for further analyses. Luciferase signals from D‐luciferin (Cat No. MB1834; MeilunBio, Dalian, China) were measured using IVIS Spectrum (PerkinElmer, USA) at indicated concentrations. The luciferase signal activity was quantitated using the software provided by the manufacturer.
# PDX tumors = assay: Patient-derived xenograft (PDX) model of PDAC; assay type: in vivo, Human (xenograft in immunodeficient nude mice)
# Source text: A PDX model was established by implanting tumor fragments into immunodeficient nude mice. Tumor fragments were derived from a PDAC patient with stage II ductal adenocarcinoma, who underwent surgery at the Second Affiliated Hospital of Nanjing Medical University. Informed consent was obtained from each patient, and all procedures involving human samples were approved by the Ethics Committee of the Second Affiliated Hospital of Nanjing Medical University.
# KLLN [4] = assay: Western blot of KLLN in PANC-1 cells; assay type: cell-based, Human; details: 0, 1, 10 or 100 μM GSK-LSD1, Figure S4D
# Method: as §2
# PANC‐1 cells = assay: Transwell migration and invasion, PANC-1; assay type: cell-based, Human; details: 24 h, vs Vehicle, p < 0.01, Figure S4G
# Method: as §1
# SW1990 cells [5] = assay: RNA-seq of GSK-LSD1-treated SW1990 cells; assay type: cell-based, Human; details: fold change > 1.5, p < 0.05, Figure 4A
# Source text: Total RNA was isolated from cells using RNAiso plus (Takara). The quantity and integrity of RNA were separately evaluated using the K5500 (Beijing Kaiao, China) and the Agilent 2200 TapeStation (Agilent Technologies, USA). Briefly, the mRNA was enriched by OligodT NEBNext Poly(A) mRNA Magnetic Isolation Module (NEB, USA), and then fragmented into ≈200 bp. Subsequently, the RNA fragments were subjected to first and second strand cDNA synthesis, followed by adaptor ligation and enrichment according to instructions of NEBNext Ultra RNA Library Prep Kit for Illumina. The purified library products were evaluated by the Agilent 2200 TapeStation and Qubit (Thermo Fisher Scientific, USA). The libraries were sequenced by Illumina (Illumina, USA) with paired‐end 150 bp (Ribobio, China). The clean reads were acquired after discarding low‐quality reads or those containing adapter and ploy‐N. HISAT2 was employed to calibrate clean reads to human reference genome hg38 with default parameters. HTSeq was used to convert aligned short reads into read counts for each gene model. Differential gene expression was assessed by DESeq2 using read counts as input.^[ [62] ^] The Benjamini–Hochberg multiple test correction method was employed. […] RNA‐seq data sets were available (GEO accession number GSE237363).
# KLLN [6] = assay: Western blot and IHC of metastatic foci from treated mice, KLLN; assay type: in vivo, Human (xenograft in BALB/c nude mice); details: control vs GSK-LSD1-treated lung metastasis tissues, Figure 5L,M
smiles,measurement,setting,value
c1ccc([C@@H]2C[C@H]2NC2CCNCC2)cc1 [GSK‐LSD1],tumor-suppressive phenotype of GSK-LSD1 on knockdown of KLLN,SW1990 cells [1],markedly attenuated
same,"KLLN level, concentration dependence","KLLN [2]; 0, 1, 10, or 100 µM GSK-LSD1, Figure 5E",increased the levels of H3K4me1 and KLLN in a concentration‐dependent manner
same,KLLN protein level,"KLLN [2]; Western blot, concentration not given, Figure 4F",significant upregulation
same,"H3K4me1 level, concentration dependence",H3K4me1,increased the levels of H3K4me1 and KLLN in a concentration‐dependent manner
same,H3K4me1 level via blocking of KDM1A/LSD1,KDM1A/LSD1,can increase H3K4me1 level
same,"inhibition of KDM1A/LSD1, in words",KDM1A/LSD1,selective inhibitor of KDM1A/LSD1
same,invasion,SW1990 cells [3]; Transwell with Matrigel,significantly inhibited
same,migration,SW1990 cells [3]; Transwell without Matrigel,significantly inhibited
same,xenograft size compared to control mice,SW1990‐luc xenografts,significantly smaller sizes of SW1990‐luc xenografts
same,effect compared with Gemcitabine,"PDX tumors; PDX mice, n = 5, doses not given, Figure 5N,O",more favorable effects than Gemcitabine
same,PDX tumor size compared with control mice,"PDX tumors; n = 5, dose not given, Figure 5N",remarkably smaller tumors
same,"KLLN level, concentration dependence",KLLN [4],increased the levels of H3K4me1 and KLLN in a concentration‐dependent manner
same,invasion,PANC‐1 cells; Transwell with Matrigel,significantly inhibited
same,migration,PANC‐1 cells; Transwell without Matrigel,significantly inhibited
same,upregulated genes overlapping between EBF2-OE and GSK-LSD1-treated cells,SW1990 cells [5],17
same,KLLN in metastatic foci,KLLN [6],upregulation
